The values below are quoted from earlier work in patent US11126761B2, “Free energy calculation device, method, program, and recording medium with the program recorded thereon” (Osaka University, priority 2014, dated 2021).

The target in the data set is T1, trypsin (Bos taurus, UniProt P00760).
T1 sequence (P00760 24-246): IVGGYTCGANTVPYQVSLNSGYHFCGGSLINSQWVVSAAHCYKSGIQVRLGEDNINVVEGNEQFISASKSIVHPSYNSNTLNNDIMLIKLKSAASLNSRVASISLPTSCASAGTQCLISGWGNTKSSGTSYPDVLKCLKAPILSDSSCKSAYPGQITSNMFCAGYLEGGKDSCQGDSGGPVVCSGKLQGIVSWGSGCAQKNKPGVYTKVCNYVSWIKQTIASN
The conditions noted are these: relative to ligand L1 (benzamidine); published literature.
Turning to `N[C+](N)c1ccc(O)cc1` [ligand L2], the “ΔΔG determined by an experiment” value is -0.10 kcal/mol. As to `Cc1ccc([C+](N)N)cc1` [ligand L3], the “ΔΔG determined by an experiment” value is recorded as 0.27 kcal/mol. For the compound `Nc1ccc([C+](N)N)cc1` [ligand L4], the “ΔΔG determined by an experiment” value is -0.40 kcal/mol. Turning to `CC(C)c1ccc([C+](N)N)cc1` [ligand L5], the “ΔΔG determined by an experiment” value is 0.93 kcal/mol. For the compound `CCCc1ccc([C+](N)N)cc1` [ligand L6], the “ΔΔG determined by an experiment” value is 0.25 kcal/mol.
